Results taken from patent US7148250B2, “Indoles as NAALADase inhibitors” (Guilford Pharmaceuticals Inc., priority 2001, dated 2006).
pIC50: −log10 of the molar value.

Tests used:
NAALADase = biological target: T1, NAALADase (Homo sapiens, UniProt Q04609); assay: In vitro inhibition of NAALADase activity; assay type: biochemical; settings: average IC50 values
T1 construct: from tissue; host or cells: unspecified "tissue"
Method: Various compounds of the invention were tested for in vitro inhibition of NAALADase activity.
The following were combined in assay tubes: 100 μL of 10 mM CoCl2, 250 μof 200 mM Tris chloride, 100 μL tissue, 100 μL of 10 mM NAALADase inhibitor in Bakers H2O, and Bakers H2O to make a total volume of 950 μL. Each assay tube was then incubated for 10 minutes in a 37 EC water bath. […] The assay was stopped by adding 1.0 ml of 0.1 M sodium phosphate.
Glutamate released by the action of the NAALADase enzyme was separated from the assay solution using an anion exchange resin. The resin was equilibrated to 25 EC, 2.0 ml of the resin was added to a Pasteur pipette pre-loaded with a single glass bead, and each column was washed twice with distilled H2O. A column was placed over a scintillation vial and 200 μL of an assay sample was loaded onto the column. After draining, glutamate was eluted using two 1.0 ml washes of 1 M formic acid. After addition of 10 ml of scintillation cocktail, each sample was counted for 2 minutes on a scintillation counter.

STZ-diabetic rats [1] = assay: Neuropathic pain in STZ model (thermal withdrawal latency); assay type: in vivo, rat; settings: 10 mg/kg i.p. daily, treatment from 45 days post STZ
Method: Male Sprague-Dawley rats (200–225 g) were rendered diabetic by intravenous administration of streptozotocin (“STZ”, 70 mg/kg in phosphate buffered saline). Diabetic animals were divided into five groups: one group receiving Compound A (10 mg/kg or 1 mg/kg), Compound D (10 mg/kg or 1 mg/kg) or vehicle. Another group of animals (non-STZ treated) served as non-diabetic controls. Drug/vehicle treatment was started in diabetic animals 45 days post-STZ administration. STZ-induced diabetic rats were tested for sensitivity to a heat source as soon as blood glucose levels rose to 320 mg/dl or above (30 days post STZ). The rats were then acclimated to a Hargreaves apparatus and thermal nociception was monitored using an infrared heat source directed into the dorsal surface of the hindpaw, and the time taken for the animal to remove its paw noted to the nearest 0.1 seconds (see Hargreaves et al., supra, for detailed experimental method). The intensity of the beam source was adjusted such that the mean latency for control animals (non-STZ treated) was approximately 10 seconds. Each animal was tested 8 times and the mean difference score (between mean non-diabetic control latency and mean diabetic latency) are graphically presented in FIGS. 7A and 7B.

BB/W diabetic rats = assay: Progression of neuropathic pain and nerve conduction deficits in BB/W model; assay type: in vivo, rat
From the text: Male BB/W rats (BRI, Mass) spontaneously develop a cell mediated autoimmune destruction of pancreatic B cells, resulting in onset of insulin-dependent (Type I) diabetes (Guberski 1994). […] This renders them valuable for experimental trials of new compounds for future treatments of this major disorder. In the present study, Compound D and Compound A were examined for their ability to alter the progression of diabetic neuropathy. The rats received daily injection of Compound D or Compound A (10 mg/kg i.p.) or vehicle, starting at the onset of diabetes (hyperglycemia) and up to 6 months thereafter. Another group of non-diabetic rats also receiving vehicle were tested. All animals were continuously monitored for body weight, urine volume, blood sugar and glycated haemoglobin. In the first month of the study, all animals were tested for thermal nociception in a Hargreaves apparatus, weekly. After the first month this was done biweekly and then monthly. The testing consists of directing an infrared heat source onto the dorsal surface of the rat hindpaw and noting the time taken for the animal to remove its paw (see Hargreaves et al., supra, for a description of the experimental method). Each animal was tested 8 times and the mean withdrawal latency noted.
Nerve conduction velocity was also measured every two weeks through the first eight weeks of treatment and every month thereafter through to the six months of treatment (see De Koning et al., Peptides, Vol. 8, No. 3, pp. 415–22 (1987) for a description of the experimental method). […] This was apparent starting at 8 weeks of treatment and persisted to a similar degree through to the six month termination point of the study.

STZ-diabetic rats [2] = assay: Diabetic neuropathy in STZ model (nerve conduction velocity); assay type: in vivo, rat
Method: Motor and sensory nerve conduction velocity was also measured in STZ-diabetic animals after 4, 8 and 12 weeks of treatment (see De Koning et al., supra, for a description of the experimental method). Briefly, stimulating needle electrodes were inserted close to the sciatic and tibial nerves with recording electrodes being placed subcutaneously over the distal foot muscles, in anesthetized rats.

STZ-diabetic rats [3] = assay: Reversal of diabetic neuropathy in STZ model, delayed dosing; assay type: in vivo, rat; settings: for neuropathic hyperalgesia / motor nerve conduction velocity: daily p.o.; for neuropathic hyperalgesia: treatment from 5 weeks post STZ, within two weeks of treatment; for motor nerve conduction velocity: within 8 weeks of dosing, persisted through 12 weeks
Method: Rats (200–225 grams) were injected with STZ (70 mg/kg) into the tail vein. Diabetes (>350 mg/dl) was confirmed in all rats, 4 weeks after STZ administration. Rats were left untreated until 35–49 days after STZ. Compound D (1, 3, or 10 mg/kg), Compound E (10 mg/kg), or vehicle were dosed daily p.o. following confirmation of hyperalgesia and/or nerve conduction velocity deficits. In separate experiments, onset of treatment was delayed until 60 to 90 days after STZ administration. Nerve conduction velocity or withdrawal response to thermal stimulation of hind paws was measured at intervals, usually bi-weekly for thermal response and monthly for nerve conduction velocity.
Sensory and motor nerve conduction velocities were evaluated using the method of De Koning and Gispen (Peptides 8: 415–422, 1987). Electrophysiological evaluation was carried out within one hour of dosing. Animals were anesthetized with isoflurane and stimulating needle electrodes were inserted close to the sciatic nerve at the sciatic notch and the tibial nerve near the ankle. Recording electrodes were placed over the foot muscles. Stimuli were applied and responses recorded. Motor and sensory nerve conduction velocities were calculated by measuring the distance between the sciatic notch and ankle sites, and the latency between the M-wave and the H-reflex.
Animals were acclimated to the apparatus for at least 5 min. An infra-red source was placed under below the plantar surface of the rat hind-paw. The intensity of the source was adjusted so that latency for normal rats was about 10 secs. Animals were tested for thermal response latency according to the method of Hargreaves et al (Pain 77–88, 1988). Each animal was tested 8 times (4 each hind limb) and the latency of response recorded automatically to nearest 0.1 sec. An average of the last 4 measurements for each paw was calculated (8 total measurements) and noted for each rat.

T1 sequence (Q04609 whole entry): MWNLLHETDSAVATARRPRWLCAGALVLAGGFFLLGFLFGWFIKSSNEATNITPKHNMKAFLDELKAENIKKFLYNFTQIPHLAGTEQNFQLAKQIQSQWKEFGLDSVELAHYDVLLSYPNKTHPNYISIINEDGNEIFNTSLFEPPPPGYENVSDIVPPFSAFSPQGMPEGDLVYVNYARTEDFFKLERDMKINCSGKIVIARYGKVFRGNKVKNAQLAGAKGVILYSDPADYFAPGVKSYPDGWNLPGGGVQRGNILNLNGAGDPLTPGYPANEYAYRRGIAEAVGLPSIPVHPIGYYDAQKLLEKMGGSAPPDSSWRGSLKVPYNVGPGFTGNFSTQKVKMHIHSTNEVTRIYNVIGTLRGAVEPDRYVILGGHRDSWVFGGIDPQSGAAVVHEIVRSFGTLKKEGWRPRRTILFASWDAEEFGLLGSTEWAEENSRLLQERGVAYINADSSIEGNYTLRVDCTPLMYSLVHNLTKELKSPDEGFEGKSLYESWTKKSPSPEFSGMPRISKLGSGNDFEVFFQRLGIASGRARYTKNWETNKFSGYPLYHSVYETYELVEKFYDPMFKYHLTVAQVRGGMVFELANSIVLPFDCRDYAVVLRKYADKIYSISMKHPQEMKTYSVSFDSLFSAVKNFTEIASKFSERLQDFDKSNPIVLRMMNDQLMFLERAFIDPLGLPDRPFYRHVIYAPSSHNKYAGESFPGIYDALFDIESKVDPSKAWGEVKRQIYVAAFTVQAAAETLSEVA

O=C(O)c1[nH]c2ccccc2c1CCS [Compound 1, 3-(2-mercaptoethyl)-1H-indole-2-carboxylic acid]
pIC50 (NAALADase): 5.91

O=C(O)c1[nH]c2c(C(=O)O)cccc2c1CCS [Compound 2, 3-(2-mercaptoethyl)-1H-indole-2,7-dicarboxylic acid]
pIC50 (NAALADase): 6.12

O=C(O)c1cccc(Cn2c(C(=O)O)c(CCS)c3ccccc32)c1 [Compound 3, 1-[(3-carboxyphenyl)methyl]-3-(2-mercaptoethyl)-1H-indole-2-carboxylic acid]
pIC50 (NAALADase): 7.26

O=C(O)c1ccc(Br)c(Cn2c(C(=O)O)c(CCS)c3ccccc32)c1 [Compound 4, 1-[(2-bromo-5-carboxyphenyl)methyl]-3-(2-mercaptoethyl)-1H-indole-2-carboxylic acid]
pIC50 (NAALADase): 7.27

O=C(O)c1ccc(Cn2c(C(=O)O)c(CCS)c3ccccc32)cc1 [Compound 5, 1-[(4-carboxyphenyl)methyl]-3-(2-mercaptoethyl)-1H-indole-2-carboxylic acid]
pIC50 (NAALADase): 7.18

O=C(O)c1c(CCS)c2ccccc2n1Cc1ccccc1 [Compound 6, 3-(2-mercaptoethyl)-1-(phenylmethyl)-1H-indole-2-carboxylic acid]
pIC50 (NAALADase): 4.92

O=C(O)c1ccccc1Cn1c(C(=O)O)c(CCS)c2ccccc21 [Compound 7, 1-[(2-carboxyphenyl)methyl]-3-(2-mercaptoethyl)-1H-indole-2-carboxylic acid]
pIC50 (NAALADase): 7.73

CC(C)(C)c1cc(Cn2c(C(=O)O)c(CCS)c3ccccc32)cc(C(=O)O)c1 [Compound 8, 1-[[3-carboxy-5-(1,1-dimethylethyl)-phenyl]methyl]-3-(2-mercaptoethyl)-1H-indole-2-carboxylic acid]
pIC50 (NAALADase): 7.46

O=C(O)c1cc(Cn2c(C(=O)O)c(CCS)c3ccccc32)ccc1Br [Compound 9, 1-[(4-bromo-3-carboxyphenyl)methyl]-3-(2-mercaptoethyl)-1H-indole-2-carboxylic acid]
pIC50 (NAALADase): 6.98

COc1ccc(C(=O)O)c(Cn2c(C(=O)O)c(CCS)c3ccccc32)c1 [Compound 10, 1-[(2-carboxy-5-methoxyphenyl)methyl]-3-(2-mercaptoethyl)-1H-indole-2-carboxylic acid]
pIC50 (NAALADase): 7.92

O=C(O)c1c(CCS)c2ccccc2n1-c1ccccc1 [Compound 11, 3-(2-mercaptoethyl)-1-phenyl-1H-indole-2-carboxylic acid]
pIC50 (NAALADase): 5.32

O=C(O)c1c(CCS)c2ccccc2n1CCc1ccccc1 [Compound 12, 3-(2-mercaptoethyl)-1-(2-phenylethyl)-1H-indole-2-carboxylic acid]
pIC50 (NAALADase): 4.36

O=C(O)CCC(CCS)C(=O)O (stereo not shown) [Compound D, 2-(2-sulfanylethyl)-pentanedioic acid]
hyperalgesic response (withdrawal latency difference score) (STZ-diabetic rats [1]): completely reversed
nerve conduction velocity deficits versus diabetic vehicle controls (BB/W diabetic rats; 10 mg/kg daily, from 8 weeks to six months): significantly less severe nerve conduction deficits
withdrawal latency versus diabetic vehicle-treated rats (BB/W diabetic rats; 10 mg/kg i.p. daily, from 4 weeks through six months of treatment): longer withdrawal latencies
motor and sensory nerve conduction velocities (STZ-diabetic rats [2]; 1 mg/kg): increased
motor and sensory nerve conduction velocities (STZ-diabetic rats [2]; 10 mg/kg daily, 4, 8 and 12 weeks): increased
sensory and motor nerve conduction velocity deficits (STZ-diabetic rats [3]; STZ rats untreated until 60 days after STZ, external CRO): Partial reversal
neuropathic pain abnormalities (STZ-diabetic rats [3]; STZ rats, 1 and 3 mg/kg, treatment from 7 weeks post STZ): Significant reduction
motor nerve conduction (STZ-diabetic rats [3]; STZ rats, 1 and 3 mg/kg, treatment from 7 weeks post STZ, 8 weeks after dosing): remained unimproved
sensory nerve conduction (STZ-diabetic rats [3]; STZ rats, 1 and 3 mg/kg, treatment from 7 weeks post STZ, within 4 weeks of treatment): significantly improved towards normal
neuropathic hyperalgesia (STZ-diabetic rats [3]; STZ rats): reversed towards normal
motor nerve conduction velocity (STZ-diabetic rats [3]; STZ rats): reversed the motor nerve conduction velocity towards normal

O=C(O)c1cccc(CC(CCCS)C(=O)O)c1 (stereo not drawn) [Compound E, 3-carboxy-alpha-(3-mercaptopropyl)benzenepropanoic acid]
neuropathic hyperalgesia (STZ-diabetic rats [3]; STZ rats): reversed towards normal
motor nerve conduction velocity (STZ-diabetic rats [3]; STZ rats): reversed the motor nerve conduction velocity towards normal
